Measurements from ChEMBL document CHEMBL3301562, “MMV Box screening against Plasmodium falciparum protein kinases and aminoacyl tRNA synthetases”.

Key:
Format in all cases: functional
Lysine--tRNA ligase = Lysine--tRNA ligase (Plasmodium falciparum (isolate 3D7), UniProt Q8IDJ8); assay: MMV: KRS recombinant Plasmodium falciparum Lysyl-tRNA-synthetase, assay with yeast tRNA, ATP, and lysine and 3 uM MMV malaria box compound, assay read out with kinase glo as % inhibition.
Proline--tRNA ligase = molecular target: T1, Proline--tRNA ligase (Plasmodium falciparum (isolate 3D7), UniProt Q8I5R7); assay: MMV: ProRS recombinant Plasmodium falciparum Prolyl-tRNA-synthetase, assay with yeast tRNA, ATP, and proline and 3 uM MMV malaria box compound, assay read out with kinase glo as % inhibition.
T1 sequence (Q8I5R7 whole entry): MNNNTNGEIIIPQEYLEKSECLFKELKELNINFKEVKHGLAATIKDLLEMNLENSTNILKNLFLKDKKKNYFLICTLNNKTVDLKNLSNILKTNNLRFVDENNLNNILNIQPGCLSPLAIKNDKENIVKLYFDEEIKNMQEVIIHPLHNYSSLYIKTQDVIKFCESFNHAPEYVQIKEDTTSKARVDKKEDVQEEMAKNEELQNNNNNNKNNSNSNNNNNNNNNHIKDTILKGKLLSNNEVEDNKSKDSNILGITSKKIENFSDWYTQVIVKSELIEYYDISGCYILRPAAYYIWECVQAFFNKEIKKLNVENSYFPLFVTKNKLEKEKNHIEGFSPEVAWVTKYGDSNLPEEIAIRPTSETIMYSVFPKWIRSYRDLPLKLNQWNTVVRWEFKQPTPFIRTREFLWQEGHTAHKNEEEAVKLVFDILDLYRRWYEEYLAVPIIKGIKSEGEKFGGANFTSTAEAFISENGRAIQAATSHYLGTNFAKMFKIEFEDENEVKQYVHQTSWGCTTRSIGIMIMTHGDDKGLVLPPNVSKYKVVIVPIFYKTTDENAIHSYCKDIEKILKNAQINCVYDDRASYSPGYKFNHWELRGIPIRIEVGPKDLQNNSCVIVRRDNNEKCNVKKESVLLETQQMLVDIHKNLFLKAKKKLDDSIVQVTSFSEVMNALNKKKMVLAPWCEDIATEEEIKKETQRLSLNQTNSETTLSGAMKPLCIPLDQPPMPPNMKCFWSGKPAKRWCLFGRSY

[1] = molecular target: Calcium-dependent protein kinase 1 (Plasmodium falciparum, UniProt P62344); assay: MMV: CDPK1 Protein kinase inhibition assay using recombinant PfCDPK1, syntide 2 peptide substrate, ATP and KinaseGlo to measure % inhibition at 1 uM MMV box compound.
Sequence of Calcium-dependent protein kinase 1 (P62344 whole entry): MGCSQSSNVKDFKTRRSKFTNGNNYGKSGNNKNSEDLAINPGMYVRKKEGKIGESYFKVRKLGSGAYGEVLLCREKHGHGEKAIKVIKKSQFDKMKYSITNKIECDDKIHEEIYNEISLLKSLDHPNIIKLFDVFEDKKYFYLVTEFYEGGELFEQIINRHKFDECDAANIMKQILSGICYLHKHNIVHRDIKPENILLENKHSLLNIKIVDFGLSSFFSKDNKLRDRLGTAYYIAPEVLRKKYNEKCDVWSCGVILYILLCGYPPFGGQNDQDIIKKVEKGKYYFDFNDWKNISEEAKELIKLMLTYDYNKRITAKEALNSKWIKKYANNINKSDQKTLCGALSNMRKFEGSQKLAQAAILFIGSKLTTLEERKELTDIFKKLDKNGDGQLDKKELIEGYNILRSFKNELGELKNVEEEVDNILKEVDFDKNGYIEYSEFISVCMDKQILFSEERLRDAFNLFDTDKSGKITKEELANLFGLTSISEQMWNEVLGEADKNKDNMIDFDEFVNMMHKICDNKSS

[2] = molecular target: T2, Putative uncharacterized protein pk7 (Plasmodium falciparum, UniProt O96214); assay: Final concentrations were 1 uM ATP, 2 mM DTT, 20 mM MgCl2, 2 mM MnCl2, 0.01% BSA, and 6 ug/ml PK7, in a buffer of 20 mM Tris-HCl (pH 7.5). The enzyme itself was the only substrate present (since autophosphorylation occurs); 100 uM 1NA-PP1 was used as a control inhibitor. Incubation time was 3 hours.
T2 sequence (O96214 whole entry): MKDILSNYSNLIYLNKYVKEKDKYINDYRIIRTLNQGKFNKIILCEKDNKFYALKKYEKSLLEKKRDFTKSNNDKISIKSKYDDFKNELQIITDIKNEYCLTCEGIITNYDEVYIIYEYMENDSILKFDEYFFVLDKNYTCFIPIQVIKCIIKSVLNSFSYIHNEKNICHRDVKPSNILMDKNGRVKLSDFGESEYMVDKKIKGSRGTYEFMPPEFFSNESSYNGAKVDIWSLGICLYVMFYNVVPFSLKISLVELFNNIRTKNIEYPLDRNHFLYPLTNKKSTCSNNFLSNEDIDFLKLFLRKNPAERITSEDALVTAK

[3] = molecular target: T3, Cdk-related protein kinase 6 (Plasmodium falciparum, UniProt O77239); assay: Final concentrations were 1.5 uM ATP, 5 mM MnCl2, and 15 ug/ml PK6 in a buffer of 100 mM Tris-HCl (pH 7.5). 50 ug/mL MBP was provided as the substrate; 10 uM staurosporine was used as a control inhibitor. Incubation time was 3 hours and 40 minutes.The catalytic activity of each kinase was considered proportional to ATP consumed, as determined from measurements of residual [ATP] with the luciferase-based reagent Kinase-Glo (Promega) following incubation. Luminescence (proportional to residual [ATP]) was measured on the plate readers FLx800 (BioTek Instruments, Winooski, VT, USA) and MicroBeta2.
T3 sequence (O77239 whole entry): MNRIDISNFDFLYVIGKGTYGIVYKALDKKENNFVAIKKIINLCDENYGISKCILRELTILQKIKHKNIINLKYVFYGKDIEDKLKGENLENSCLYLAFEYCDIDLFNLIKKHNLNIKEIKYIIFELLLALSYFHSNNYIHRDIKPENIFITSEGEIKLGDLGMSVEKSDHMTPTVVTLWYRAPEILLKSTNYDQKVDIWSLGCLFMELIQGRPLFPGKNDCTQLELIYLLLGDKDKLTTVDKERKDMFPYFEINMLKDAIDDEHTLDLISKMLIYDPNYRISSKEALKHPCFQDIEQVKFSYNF

[4] = molecular target: T4, Calcium-dependent protein kinase 4 (Plasmodium falciparum (isolate 3D7), UniProt Q8IBS5); assay: MMV: CDPK4 Protein kinase inhibition assay using recombinant PfCDPK4, syntide2 peptide substrate, ATP and KinaseGlo to measure % inhibition at 1 uM MMV box compound.
T4 sequence (Q8IBS5 whole entry): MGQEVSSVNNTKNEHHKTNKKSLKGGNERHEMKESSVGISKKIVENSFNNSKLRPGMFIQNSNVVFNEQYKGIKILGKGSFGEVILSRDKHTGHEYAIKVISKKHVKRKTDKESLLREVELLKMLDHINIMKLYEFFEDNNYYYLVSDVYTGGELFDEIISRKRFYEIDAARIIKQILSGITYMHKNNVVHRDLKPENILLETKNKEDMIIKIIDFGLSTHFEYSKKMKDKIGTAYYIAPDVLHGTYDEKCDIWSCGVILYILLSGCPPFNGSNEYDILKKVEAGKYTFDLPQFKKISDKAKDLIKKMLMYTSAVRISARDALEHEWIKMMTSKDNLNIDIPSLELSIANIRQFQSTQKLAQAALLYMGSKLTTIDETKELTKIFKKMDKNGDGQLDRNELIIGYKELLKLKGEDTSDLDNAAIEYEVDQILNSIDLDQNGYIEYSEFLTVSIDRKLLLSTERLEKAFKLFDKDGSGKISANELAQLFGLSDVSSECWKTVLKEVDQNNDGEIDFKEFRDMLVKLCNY

[5] = molecular target: T5, Mitogen-activated protein kinase (Plasmodium falciparum, UniProt Q25917); assay: Final concentrations were 1 uM ATP, 0.5 mM DTT, 1 mM MgCl2, 0.5 mg/mL BSA, and 10 ug/ml MAP2 in a buffer of 50 mM HEPES (pH 7.0). 0.5 mg/mL histone III-S served as the substrate (13); 100 uM AMP-PNP, an ATP analog, was used as a control inhibitor. Incubation time was 4 hours.
T5 sequence (Q25917 whole entry): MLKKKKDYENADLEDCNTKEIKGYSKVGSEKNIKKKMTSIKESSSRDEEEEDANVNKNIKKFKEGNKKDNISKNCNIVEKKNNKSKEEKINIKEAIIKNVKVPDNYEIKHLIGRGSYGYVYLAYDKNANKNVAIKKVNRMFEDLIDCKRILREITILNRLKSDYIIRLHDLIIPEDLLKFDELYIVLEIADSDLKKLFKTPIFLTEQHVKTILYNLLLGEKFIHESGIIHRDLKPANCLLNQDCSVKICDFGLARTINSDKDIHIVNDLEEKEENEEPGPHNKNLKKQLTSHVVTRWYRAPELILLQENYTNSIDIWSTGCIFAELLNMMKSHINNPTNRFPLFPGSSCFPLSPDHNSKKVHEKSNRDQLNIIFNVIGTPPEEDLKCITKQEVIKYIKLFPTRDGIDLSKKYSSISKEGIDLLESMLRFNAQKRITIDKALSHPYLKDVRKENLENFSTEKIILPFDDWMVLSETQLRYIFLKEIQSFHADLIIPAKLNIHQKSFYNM

Sequence of Lysine--tRNA ligase (Q8IDJ8 whole entry): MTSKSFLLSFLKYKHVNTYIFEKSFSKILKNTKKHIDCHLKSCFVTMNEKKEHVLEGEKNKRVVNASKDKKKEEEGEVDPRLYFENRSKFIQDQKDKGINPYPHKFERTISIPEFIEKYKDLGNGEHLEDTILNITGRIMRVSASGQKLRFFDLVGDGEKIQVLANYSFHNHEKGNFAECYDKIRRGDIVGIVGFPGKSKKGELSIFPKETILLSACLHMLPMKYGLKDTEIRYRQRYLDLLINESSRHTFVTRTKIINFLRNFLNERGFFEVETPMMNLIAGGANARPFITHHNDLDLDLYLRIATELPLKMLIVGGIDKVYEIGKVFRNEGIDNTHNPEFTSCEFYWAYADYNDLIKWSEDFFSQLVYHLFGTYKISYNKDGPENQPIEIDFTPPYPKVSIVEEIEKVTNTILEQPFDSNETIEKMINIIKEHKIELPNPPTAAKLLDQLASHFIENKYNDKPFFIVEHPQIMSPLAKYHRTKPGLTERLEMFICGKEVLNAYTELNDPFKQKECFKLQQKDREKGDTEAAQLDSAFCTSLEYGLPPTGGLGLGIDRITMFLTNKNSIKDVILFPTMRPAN

| SMILES | IC50 (Lysine--tRNA ligase) | IC50 (Proline--tRNA ligase) | IC50 [1] | IC50 [2] | IC50 [3] | IC50 [4] | IC50 [5] |
| --- | --- | --- | --- | --- | --- | --- | --- |
| CCOc1cc(CNC(C)C(O)c2ccccc2)cc(Cl)c1OCC (stereo not given) | > 2500 nM | > 2500 nM | > 1000 nM | > 1000 nM | > 1000 nM | > 1000 nM | > 1000 nM |
| COc1cccc(C2(C)Nc3ccccc3-c3nc4ccccc4n32)c1 (stereo not given) | > 2500 nM | > 2500 nM | > 1000 nM | > 1000 nM | > 1000 nM | > 1000 nM | > 1000 nM |
| CC(C)CNC(=O)c1c(N)n(CCc2ccccc2F)c2nc3ccccc3nc12 | > 2500 nM | > 2500 nM | > 1000 nM | > 1000 nM | > 1000 nM | > 1000 nM | > 1000 nM |
| O=C(NC1CCN(Cc2ccccc2)CC1)c1cc(-c2ccncc2)nc2ccc(Cl)cc12 | > 2500 nM | > 2500 nM | > 1000 nM | > 1000 nM | > 1000 nM | > 1000 nM | > 1000 nM |
| CC(=O)Nc1nnc(SCc2c(C)cc(C(C)(C)C)cc2C)s1 | > 2500 nM | > 2500 nM | > 1000 nM | > 1000 nM | > 1000 nM | > 1000 nM | > 1000 nM |
| CCOc1ccc(C2N(C)c3ccccc3N2C)cc1 | > 2500 nM | > 2500 nM | > 1000 nM | > 1000 nM | > 1000 nM | > 1000 nM | > 1000 nM |
| CCN(Cc1ccccc1)C1CCN(Cc2cc(Br)ccc2O)CC1 | > 2500 nM | > 2500 nM | > 1000 nM | > 1000 nM | > 1000 nM | > 1000 nM | > 1000 nM |
| CCOc1cccc(C(=O)Nc2ccc(-c3nc4ccccc4[nH]3)cc2)c1 | > 2500 nM | > 2500 nM | > 1000 nM | > 1000 nM | > 1000 nM | > 1000 nM | > 1000 nM |
| Clc1cc(Br)ccc1-c1ccc(CNCC2CCNCC2)o1 | > 2500 nM | > 2500 nM | > 1000 nM | > 1000 nM | > 1000 nM | > 1000 nM | > 1000 nM |
| OC(CNC1CCCC1)Cn1c2ccccc2c2ccccc21 (stereo not given) | > 2500 nM | > 2500 nM | > 1000 nM | > 1000 nM | > 1000 nM | > 1000 nM | > 1000 nM |
| Oc1c2c(nc3cc(-c4ccccc4)nn13)CCCC2 | > 2500 nM | > 2500 nM | > 1000 nM | > 1000 nM | > 1000 nM | > 1000 nM | > 1000 nM |
| Cc1cc(N2CCN(C3CCCC3)CC2)n2c(nc3ccccc32)c1C#N | > 2500 nM | > 2500 nM | > 1000 nM | > 1000 nM | > 1000 nM | > 1000 nM | > 1000 nM |
| CCCCOc1ccc(C(=O)Nc2cc(C)on2)cc1 | > 2500 nM | > 2500 nM | > 1000 nM | > 1000 nM | > 1000 nM | > 1000 nM | > 1000 nM |
| CCc1ccc(Nc2cc(C)nc3nc(C)nn23)cc1 | > 2500 nM | > 2500 nM | > 1000 nM | > 1000 nM | > 1000 nM | > 1000 nM | > 1000 nM |
| CCN(CC)S(=O)(=O)c1ccc(-c2csc(Nc3ccc(C)c(C)c3)n2)cc1 | > 2500 nM | > 2500 nM | > 1000 nM | > 1000 nM | > 1000 nM | > 1000 nM | > 1000 nM |
